{
  "source": "patent US8956642B2",
  "about": "“Bupivacaine formulation in a polyorthoester carrier” (Medtronic, Inc., priority 2008, dated 2015)",
  "key": {"[1]": {"tested_on": "normal bladder activity (frequency of reflex bladder contractions)", "experiment": "Epidural infusion of bupivacaine in rats, intravesical saline infusion (normal bladder activity, cystometrogram)", "assay_type": "in vivo, rat", "settings": "epidural infusion 25 μg/day, saline infusion into bladder", "description": "(§1) FIG. 5 is a graphic representation of epidural infusion of bupivacaine in rats treated with an intravesical infusion of saline. Baseline bladder activity was measured before epidural drug treatment as described in Example 4. The columns and error bars represent the mean and SEM values of 10 rats per group. Asterisks indicate statistically significant dose effects compared to baseline as determined by post-hoc Dunnett Multiple Comparison Test.\n(§2) An animal model that has been used frequently to study pelvic pain conditions is a rat model of bladder pain. In this model, a female rat was lightly anesthetized with isoflurane and a transurethral catheter was placed into the bladder. The catheter was connected to a pressure transducer so that the pressure within the bladder could be continuously monitored and recorded over time. Fluid was continuously infused into the bladder using a syringe pump at a rate of 0.1 mL/min to cause the bladder to contract repeatedly each time it became full. This is referred to as a volume-evoked micturition reflex or contraction. A repeated series of bladder contractions (pressure spikes) over time was collected using this method. To mimic normal bladder activity, 0.9% saline was infused into the bladder; to mimic painful bladder activity, a dilute solution of acetic acid (0.5%) was infused into the bladder. […]"}, "[2]": {"tested_on": "acetic acid induced bladder hypermotility (frequency of bladder contraction reflexes)", "experiment": "Epidural infusion of bupivacaine in rat model of bladder pain, intravesical acetic acid infusion", "assay_type": "in vivo", "settings": "epidural infusion 25 μg/day", "description": "as §1, with “6” for “5”, “acetic acid as described in Example 4.” for “saline.”, “treatment.” for “treatment as described in Example 4.”\nas §2, with “contraction.” for “contraction. A repeated series of bladder contractions (pressure spikes) over time was collected using this method. To mimic normal bladder activity, 0.9% saline was infused into the bladder; to mimic painful bladder activity, a dilute solution of acetic acid (0.5%) was infused into the bladder.”\nIn order to evaluate the effects of epidurally administered analgesics on normal and painful bladder activity (frequency of reflex bladder contractions), test drugs were continuously administered via an epidural catheter with the tip placed in the mid-lumbar epidural space. […] In the experiments depicted in FIGS. 5 and 6, the baseline bladder activity was measured before implanting the epidural infusion system, the infusion system was implanted on day 0 and cystometrograms were recorded on three consecutive days during which bupivacaine (25 μg/day) was infused into the lumbar epidural space.\nBupivacaine at 25 μg/day reduced acetic acid induced bladder hypermotility by approximately 3 fold on days 2 and 3. The frequency of bladder contraction observed during acetic acid infusion and epidural bupivacaine administration was similar to the baseline bladder activity measured during saline infusion (0.206±0.046 day 3 acetic acid and epidural bupivacaine vs 0.295±0.035 baseline saline)."}},
  "data": [
    {"molecule": "CCCCN1CCCCC1C(=O)Nc1c(C)cccc1C", "note": "(centres unmarked) [bupivacaine, 1-butyl-N-(2,6-dimethylphenyl)piperidine-2-carboxamide]", "values": [
      {"measurement": "effects on normal bladder activity measured during saline infusion", "setting": "[1]; day 1, vs baseline", "result": "minimal effects"},
      {"measurement": "contraction rate relative to the baseline reflex contraction rate", "setting": "[1]; days two and three", "result": "statistically significant reductions"},
      {"measurement": "frequency of bladder contraction reflexes vs baseline", "setting": "[2]; 0.5% acetic acid infusion into bladder, all three days", "result": "significantly reduced"},
      {"measurement": "frequency of bladder contraction", "setting": "[2]; acetic acid infusion, day 3, mean ± SEM", "result": "0.206±0.046", "unit": "reflexes per min"},
      {"measurement": "reduction of acetic acid induced bladder hypermotility", "setting": "[2]; days 2 and 3", "result": "approximately 3 fold"}
    ]}
  ]
}
